What was measured:
Test in all cases: Test C pre-/postemergence greenhouse test
Format in all cases: in vivo
[1] = test system: oilseed rape (Brassica napus); conditions: scale 0 to 100
From the text: (§1) Seeds of plant species selected from blackgrass (Alopecurus myosuroides), ryegrass, Italian (Lolium multiflorum), wheat, winter (winter wheat, Triticum aestivum), galium (catchweed bedstraw, Galium aparine), corn (Zea mays), crabgrass, large (Digitaria sanguinalis), foxtail, giant (Setaria faberii), johnsongrass (Sorghum halepense), lambsquarters (Chenopodium album), morningglory (Ipomoea coccinea), nutsedge, yellow (Cyperus esculentus), pigweed (Amaranthus retroflexus), ragweed (common ragweed, Ambrosia elatior), soybean (Glycine max), barnyardgrass (Echinochloa crus-galli), oilseed rape (Brassica napus), waterhemp (common waterhemp, Amaranthus rudis), pigweed, palmer (Amaranthus palmeri), kochia (Kochia scoparia), oat, wild (Avena fatua), surinam grass (Brachiaria decumbens), windgrass (Apera spica-venti), poinsettia, wild (Euphorbia heterophylla) and velvetleaf (Abutilon theophrasti) were planted into a silt loam soil and treated preemergence with test chemicals formulated in a non-phytotoxic solvent mixture which included a surfactant.
(§2) At the same time, plants selected from these crop and weed species and also chickweed (common chickweed, Stellaria media), buckwheat, wild (Polygonum convolvulus), mustard, wild (Sinapis arvensis), field poppy (Papaver rhoeas), field violet (Viola arvensis), nightshade (eastern black nightshade, Solanum ptycanthum), speedwell (bird's-eye speedwell, Veronica persica), horseweed (Conyza canadensis), cutleaf geranium (Geranium dissectum), and Canada thistle (Cirsium arvense) were planted in pots containing Redi-Earth® planting medium (Scotts Company, 14111 Scottslawn Road, Marysville, Ohio 43041) comprising spaghnum peat moss, vermiculite, wetting agent and starter nutrients and treated with postemergence applications of test chemicals formulated in the same manner. Plants ranged in height from 2 to 18 cm (1- to 4-leaf stage) for postemergence treatments. Treated plants and controls were maintained in a greenhouse for 13 to 21 d, after which time all species were compared to controls and visually evaluated. Plant response ratings, summarized in Table C-1 (postemergence) and C-2 (preemergence), are based on a scale of 0 to 100 where 0 is no effect and 100 is complete control. A dash (-) response means no test result.

[2] = test system: johnsongrass (Sorghum halepense); conditions: scale 0 to 100
From the text: as §1, §2

[3] = test system: waterhemp (common waterhemp, Amaranthus rudis); conditions: scale 0 to 100
From the text: as §1, §2

corn (Zea mays) = conditions: scale 0 to 100
From the text: as §1, §2

[4] = test system: ragweed (common ragweed, Ambrosia elatior); conditions: scale 0 to 100
From the text: as §1, §2

[5] = test system: velvetleaf (Abutilon theophrasti); conditions: scale 0 to 100
From the text: as §1, §2

[6] = test system: crabgrass, large (Digitaria sanguinalis); conditions: scale 0 to 100
From the text: as §1, §2

[7] = test system: morningglory (Ipomoea coccinea); conditions: scale 0 to 100
From the text: as §1, §2

kochia (Kochia scoparia) = conditions: Postemergence, scale 0 to 100
From the text: as §1, §2

soybean (Glycine max) = conditions: scale 0 to 100
From the text: as §1, §2

[8] = test system: galium (catchweed bedstraw, Galium aparine); conditions: scale 0 to 100
From the text: as §1, §2

[9] = test system: ryegrass, Italian (Lolium multiflorum); conditions: scale 0 to 100
From the text: as §1, §2

Cc1ccc2ccc(C)c(-c3c(O)c(Cl)nn(C)c3=O)c2c1 [Cpd. No. 20, 6-chloro-4-(2,7-dimethyl-1-naphthalenyl)-5-hydroxy-2-methyl-3(2H)-pyridazinone]
70: Plant response rating, Waterhemp ([3]; Postemergence, 31 g ai/ha) | Plant response rating, Velvetleaf ([5]; Postemergence, 16 g ai/ha) | Plant response rating, Crabgrass, Large ([6]; Postemergence, 62 g ai/ha) | Plant response rating, Morningglory ([7]; Preemergence, 61 g ai/ha)
98: Plant response rating, Ragweed ([4]; Postemergence, 125 g ai/ha) | Plant response rating, Kochia (kochia (Kochia scoparia); 125 g ai/ha) | Plant response rating, Galium ([8]; Preemergence, 61 g ai/ha) | Plant response rating, Ryegrass, Italian ([9]; Preemergence, 61 g ai/ha)
65: Plant response rating, Johnsongrass ([2]; Preemergence, 125 g ai/ha) | Plant response rating, Waterhemp ([3]; Preemergence, 61 g ai/ha) | Plant response rating, Ragweed ([4]; Preemergence, 61 g ai/ha) | Plant response rating, Ryegrass, Italian ([9]; Postemergence, 16 g ai/ha)
5: Plant response rating, Johnsongrass ([2]; Postemergence, 16 g ai/ha) | Plant response rating, Corn (corn (Zea mays); Postemergence, 31 g ai/ha) | Plant response rating, Corn (corn (Zea mays); Postemergence, 62 g ai/ha) | Plant response rating, Corn (corn (Zea mays); Preemergence, 62 g ai/ha)
20: Plant response rating, Corn (corn (Zea mays); Postemergence, 125 g ai/ha) | Plant response rating, Soybean (soybean (Glycine max); Postemergence, 125 g ai/ha) | Plant response rating, Soybean (soybean (Glycine max); Preemergence, 62 g ai/ha)
100: Plant response rating, Waterhemp ([3]; Preemergence, 31 g ai/ha) | Plant response rating, Waterhemp ([3]; Preemergence, 62 g ai/ha) | Plant response rating, Waterhemp ([3]; Preemergence, 125 g ai/ha) | Plant response rating, Ragweed ([4]; Preemergence, 31 g ai/ha) | Plant response rating, Ragweed ([4]; Preemergence, 62 g ai/ha) | Plant response rating, Ragweed ([4]; Preemergence, 125 g ai/ha) | Plant response rating, Velvetleaf ([5]; Preemergence, 31 g ai/ha) | Plant response rating, Velvetleaf ([5]; Preemergence, 62 g ai/ha) | Plant response rating, Velvetleaf ([5]; Preemergence, 125 g ai/ha) | Plant response rating, Crabgrass, Large ([6]; Preemergence, 125 g ai/ha) | Plant response rating, Morningglory ([7]; Postemergence, 16 g ai/ha) | Plant response rating, Morningglory ([7]; Postemergence, 31 g ai/ha) | Plant response rating, Morningglory ([7]; Postemergence, 62 g ai/ha) | Plant response rating, Morningglory ([7]; Postemergence, 125 g ai/ha) | Plant response rating, Galium ([8]; Preemergence, 31 g ai/ha) | Plant response rating, Galium ([8]; Preemergence, 62 g ai/ha) | Plant response rating, Galium ([8]; Preemergence, 125 g ai/ha) | Plant response rating, Ryegrass, Italian ([9]; Preemergence, 31 g ai/ha) | Plant response rating, Ryegrass, Italian ([9]; Preemergence, 62 g ai/ha) | Plant response rating, Ryegrass, Italian ([9]; Preemergence, 125 g ai/ha)
60: Plant response rating, Crabgrass, Large ([6]; Preemergence, 31 g ai/ha) | Plant response rating, Crabgrass, Large ([6]; Preemergence, 61 g ai/ha) | Plant response rating, Soybean (soybean (Glycine max); Preemergence, 125 g ai/ha)
90: Plant response rating, Ragweed ([4]; Postemergence, 31 g ai/ha) | Plant response rating, Velvetleaf ([5]; Postemergence, 125 g ai/ha) | Plant response rating, Kochia (kochia (Kochia scoparia); 62 g ai/ha)
40: Plant response rating, Johnsongrass ([2]; Preemergence, 31 g ai/ha) | Plant response rating, Crabgrass, Large ([6]; Postemergence, 16 g ai/ha) | Plant response rating, Crabgrass, Large ([6]; Postemergence, 31 g ai/ha)
30: Plant response rating, Johnsongrass ([2]; Postemergence, 62 g ai/ha) | Plant response rating, Johnsongrass ([2]; Preemergence, 62 g ai/ha)
85: Plant response rating, Ragweed ([4]; Postemergence, 16 g ai/ha) | Plant response rating, Velvetleaf ([5]; Postemergence, 62 g ai/ha) | Plant response rating, Velvetleaf ([5]; Preemergence, 61 g ai/ha) | Plant response rating, Morningglory ([7]; Preemergence, 31 g ai/ha) | Plant response rating, Kochia (kochia (Kochia scoparia); 31 g ai/ha) | Plant response rating, Ryegrass, Italian ([9]; Postemergence, 31 g ai/ha)
75: Plant response rating, Waterhemp ([3]; Postemergence, 16 g ai/ha) | Plant response rating, Velvetleaf ([5]; Postemergence, 31 g ai/ha)
10: Plant response rating, Johnsongrass ([2]; Postemergence, 31 g ai/ha) | Plant response rating, Soybean (soybean (Glycine max); Postemergence, 31 g ai/ha) | Plant response rating, Soybean (soybean (Glycine max); Postemergence, 62 g ai/ha)
35: Plant response rating, Johnsongrass ([2]; Postemergence, 125 g ai/ha) | Plant response rating, Johnsongrass ([2]; Preemergence, 61 g ai/ha) | Plant response rating, Corn (corn (Zea mays); Preemergence, 125 g ai/ha)
80: Plant response rating, Crabgrass, Large ([6]; Postemergence, 125 g ai/ha) | Plant response rating, Kochia (kochia (Kochia scoparia); 16 g ai/ha)
95: Plant response rating, Waterhemp ([3]; Postemergence, 62 g ai/ha) | Plant response rating, Waterhemp ([3]; Postemergence, 125 g ai/ha) | Plant response rating, Ragweed ([4]; Postemergence, 62 g ai/ha) | Plant response rating, Crabgrass, Large ([6]; Preemergence, 62 g ai/ha) | Plant response rating, Morningglory ([7]; Preemergence, 62 g ai/ha) | Plant response rating, Morningglory ([7]; Preemergence, 125 g ai/ha) | Plant response rating, Galium ([8]; Postemergence, 16 g ai/ha) | Plant response rating, Galium ([8]; Postemergence, 31 g ai/ha) | Plant response rating, Galium ([8]; Postemergence, 62 g ai/ha) | Plant response rating, Galium ([8]; Postemergence, 125 g ai/ha) | Plant response rating, Ryegrass, Italian ([9]; Postemergence, 62 g ai/ha) | Plant response rating, Ryegrass, Italian ([9]; Postemergence, 125 g ai/ha)
0: Plant response rating, Oilseed Rape ([1]; Postemergence, 16 g ai/ha) | Plant response rating, Oilseed Rape ([1]; Postemergence, 31 g ai/ha) | Plant response rating, Oilseed Rape ([1]; Postemergence, 62 g ai/ha) | Plant response rating, Oilseed Rape ([1]; Postemergence, 125 g ai/ha) | Plant response rating, Oilseed Rape ([1]; Preemergence, 31 g ai/ha) | Plant response rating, Oilseed Rape ([1]; Preemergence, 61 g ai/ha) | Plant response rating, Oilseed Rape ([1]; Preemergence, 62 g ai/ha) | Plant response rating, Oilseed Rape ([1]; Preemergence, 125 g ai/ha) | Plant response rating, Corn (corn (Zea mays); Postemergence, 16 g ai/ha) | Plant response rating, Corn (corn (Zea mays); Preemergence, 31 g ai/ha) | Plant response rating, Corn (corn (Zea mays); Preemergence, 61 g ai/ha) | Plant response rating, Soybean (soybean (Glycine max); Postemergence, 16 g ai/ha) | Plant response rating, Soybean (soybean (Glycine max); Preemergence, 31 g ai/ha) | Plant response rating, Soybean (soybean (Glycine max); Preemergence, 61 g ai/ha)

— patent US12435044B2, “Pyridazinone herbicides and pyridazinone intermediates used to prepare a herbicide” (FMC Corporation, priority 2018, dated 2025)
